The values below are quoted from earlier work in patent US9446032B2, “Methods for treating cardiovascular disorders” (WOCKHARDT LIMITED, priority 2011, dated 2016).

Structures are written as SMILES.

The conditions of data set [1]: incomplete owing to extensive first pass metabolism.

For the compound `COCCc1ccc(OCC(O)CNC(C)C)cc1` (stereo not shown) [Metoprolol], the “solubility (BCS)” value is reported as “highly soluble”. In addition, in data set [1], the bioavailability entry was “about 50%”.
On to `CCOC(=O)C1=C(COCCN)NC(C)=C(C(=O)OC)C1c1ccccc1Cl` (stereo not shown) [Amlodipine besylate], for which the solubility in ethanol entry (ethanol) is on record as “sparingly soluble”. Besides, the solubility in water result (water) was “slightly soluble”.
